Data reported in paper PMC11898290, “TFEB promotes Ginkgetin-induced ferroptosis via TRIM25 mediated GPX4 lysosomal degradation in EGFR wide-type lung adenocarcinoma” (Theranostics, 2025).

Key:
TFEB = target: T1, TFEB (Homo sapiens, UniProt P19484); experiment: SPR, Biacore S200, CM5 chip, steady-state fit; assay type: binding; conditions: 10 mM HEPES pH 7.4, 150 mM NaCl, 0.05% P20, 2% DMSO, 25 °C; GK 0.137-100 µM
T1 construct: TFEB protein amine-coupled on CM5 chip (about 6500 RU)
T1 sequence (P19484 1-476): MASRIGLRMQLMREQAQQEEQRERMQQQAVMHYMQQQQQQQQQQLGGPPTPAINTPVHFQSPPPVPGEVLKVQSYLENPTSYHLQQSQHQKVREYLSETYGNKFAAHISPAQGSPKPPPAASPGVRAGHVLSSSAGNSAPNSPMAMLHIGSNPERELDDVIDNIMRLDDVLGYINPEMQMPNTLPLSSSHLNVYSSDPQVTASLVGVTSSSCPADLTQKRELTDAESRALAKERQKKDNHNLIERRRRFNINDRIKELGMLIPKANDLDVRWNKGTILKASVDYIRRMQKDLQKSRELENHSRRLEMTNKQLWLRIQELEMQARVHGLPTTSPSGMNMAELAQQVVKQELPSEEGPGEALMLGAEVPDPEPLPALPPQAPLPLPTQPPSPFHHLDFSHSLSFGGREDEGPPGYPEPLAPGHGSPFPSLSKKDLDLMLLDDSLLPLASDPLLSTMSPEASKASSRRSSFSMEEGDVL

[1] = target: T2, TFEB-GFP (pcDNA3.1-TFEB-GFP) (Homo sapiens, UniProt P19484); experiment: microscale thermophoresis, GFP-fusion in cell lysate; assay type: binding
T2 sequence (P19484 1-476): T1 sequence (P19484 1-476)

Kd [1]: 28 µM
Compound: COc1cc(O)c2c(=O)cc(-c3ccc(OC)c(-c4c(O)cc(O)c5c(=O)cc(-c6ccc(O)cc6)oc45)c3)oc2c1 [ginkgetin]
Kd (TFEB): The binding affinity of GK to TFEB was determined by the SPR assay.
